Experimental data published in US9162993B2, “Preparation and pharmaceuticals of biphenyl benzamide-derived derivatives” (NATIONAL DEFENSE MEDICAL CENTER, priority 2012, dated 2015).

Columns and labels:
RAW 264.7 cells = assay: MTT assay, RAW264.7 cell viability; type: cell-based; details: MTT assay, compounds at 5 μM
Experimental: (§1) The compounds 1 to 24 of the present invention is tested by three pharmacological activity tests as follows: (1) MTT assay to test the RAW264.7 cell (murine monocyte/macrophage cell line) viability; (2) Tartrate-resistant acid phosphatase (TRAP) staining and activity analysis to investigate the cell differentiation activity; (3) The activity test of bone resorption (Pit formation assay).
(§2) The synthesized difunisal derivatives, compounds 1 to 24, were pharmacologically tested to be identified the relationship between their structure and activity. Cell viability was measured by MTT assay in RAW 264.7 cells upon treatment with compounds at 5 μM. CC50 is the cytotoxic concentration that produces 50% (CC50) cell death. […] The multinucleated osteoclasts could be formed by RANKL-induced macrophage cell line […]. RAW 264.7 cells were cultured with the indicated in the presence of drug and RANKL (100 ng/mL). Numbers of TRAP-positive (TRAP^+) multinucleated cells (MNCs) were counted in the presence of RANKL to identify the relationship between osteoclast and bone formation. […] The compound 16 performed the best inhibitory effect in the TRAP staining. The compound 16 was a derivate from compound 4 and its structure was related to compound 4. Therefore, the compound 4 and 16 were performed by TRAP assay to evaluate the effect on osteoclast differentiation by different concentration of compounds. […] According to above result, it can be speculated that: (1) Due to different substitutes on benzene ring of difunisal, the inhibitory ability of RANKL-induced osteoclast differentiation would be different. (2) Due to the electron-withdrawing group substitutes of R1 and R4 on benzene ring, or electron-withdrawing group substitutes derivatives of R2 on benzene ring, such as compound 4. (R1═F and R4═F), compound 6 (R2═CF3), compound 9 (R2═CN) and compound 16 (R1═F and R4═F), (3) compound 4 (R1═F and R4═F) and compound 6 (R2═CF3), a cyclic derivate compound 16 (R1═F and R4═F) and compound 18 (R2═CF3), the inhibitory activity would be stronger.

[1] = MTT assay, RAW264.7 cell viability; type: cell-based; details: mouse; RAW 264.7 cells; cytotoxic concentration that produces 50% cell death
Experimental: as §1, §2

[2] = test system: RANKL-induced osteoclast differentiation in RAW 264.7 cells; assay: TRAP staining, RANKL-induced osteoclast differentiation (TRAP+ multinucleated cells); type: cell-based, murine; details: Mus musculus; for inhibition at 5 µM: RAW264.7, RAW 264.7 cells, RANKL (100 ng/mL), compounds at 5 μM, TRAP-positive multinucleated cells, read-out: Inhibition of MNCs (%); for IC50: RAW264.7, different concentrations of compound, FIG. 1A, read-out: TRAP inhibitory activity IC50
Experimental: as §1, §2

NO production = assay: Measurement of NO concentrations (Griess reaction) in porcine chondrocytes; type: cell-based; details: Sus scrofa, Chondrocyte, nitrite in supernatants, read-out: anti-inflammatory IC50 (μM) on NO production
Experimental: Porcine cartilage was obtained from the hind leg joints of pigs. The synthesis of chondrocytes from cartilage was performed according to our previous report. After enzymatic digestion of articular cartilage with 2 mg/mL protease in serum-free Dulbecco's modified Eagle's medium (DMEM)/antibiotics, the specimens were then digested overnight with 2 mg/mL collagenase I and 0.9 mg/ml, hyaluronidase in DMEM containing 10% fetal bovine serum (FBS). The cells were collected, passed through a cell strainer (Becton Dickinson, Mountain View, Calif., USA), and cultured in DMEM containing 10% […] and antibiotics for 3-4 days before use.
The measurement of NO release was reflected by determination of its stable end product, nitrite, in supernatants. The Griess reaction was performed with the concentrations of nitrite measured by a spectrophotometer. In brief, an aliquot (100 μL) of culture supernatant was incubated with 50 μL of 0.1% sulfanilamide in 5% phosphoric acid and 50 μL of 0.1% N-1-naphthyl-ethylenediamine dihydrochloride. After 10 min of incubation at room temperature, the absorbance was measured at 550 nm wavelength with a plate reader (recall, Grodig, […]).

[3] = test system: RANKL-induced resorption of osteoclast (RAW264.7 cells); assay: Pit formation assay (bone resorption activity); type: cell-based, murine; details: 5 μM, dentine slices, 4 days, FIG. 1B
Experimental: as §1
By using pit formation assay, compounds 4 and 16 have effect on inhibition of resorption of osteoclast. RAW264.7 cells were cultured without compounds (compound 4 or compound 16, 5 μM) or treated with compounds (compound 4 or compound 16, 5 μM) in 24 well dentine slices plates in the presence of RANKL after 4 days, to identify the ability of resorption of osteoclast by observing the resorption pits formation. […] It was obvious that compound 4 or 16 could inhibit the RANKL-induced resorption of osteoclast (FIG. 3A to D).

SMILES | Cell viability (%) (RAW 264.7 cells) | CC50 [1] [µM] | inhibition at 5 µM [2] [%] | IC50 [2] [µM] | IC50 (NO production) [µM] | resorbed area compared to the cell cultured without drug in the presence of RANKL [3] [%]
O=C(Nc1cc(F)ccc1F)c1cc(-c2ccc(F)cc2F)ccc1O [compound 4, N-(2,5-difluorophenyl)-2′,4′-difluoro-4-hydroxy-[1,1′-biphenyl]-3-carboxamide] | 102.46 ± 1.10 | 14.6 | 67.3 ± 4.38 | 3.89 | 0.71 | 23.11±2.25
O=c1oc2ccc(-c3ccc(F)cc3F)cc2c(=O)n1-c1cc(F)ccc1F [compound 16, 6-(2,4-difluorophenyl)-3-(2,5-difluorophenyl)-2H-benzo[e][1,3]oxazine-2,4(3H)-dione] | 86.60 ± 5.69 | 10.8 | 86.8 ± 1.74 | < 2.5 | 1.15 | 20.11±1.51
